From US20250011311A1, “AMIDO HETEROAROMATIC COMPOUNDS” (AstraZeneca AB, priority 2022, published 2025)

Molecular target: over expressed HSD17β9 in HEK293S cells (Homo sapiens (Human), UniProt Q92781)
Experiment: In Vitro 17bHSD9 Cell Assay
Format: cell-based
Details: HEK293S cells over expressing HSD17β9; retinol to retinal conversion, 18 h, LC-MS/MS; read-out: 17bHSD9 Cell assay IC50
Summary of the method: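 HEK293S cells overexpressing HSD17β9 were plated at 10K cells/well in DMEM + 10% FBS and cultured 18 h. Retinol-to-retinal conversion in media was quantified by LC-MS/MS (MRM) as retinal/(retinal + retinol). IC50 was fitted after normalisation to DMSO and full inhibition by a reference inhibitor.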

over expressed HSD17β9 in HEK293S cells, sequence (Q92781 whole entry): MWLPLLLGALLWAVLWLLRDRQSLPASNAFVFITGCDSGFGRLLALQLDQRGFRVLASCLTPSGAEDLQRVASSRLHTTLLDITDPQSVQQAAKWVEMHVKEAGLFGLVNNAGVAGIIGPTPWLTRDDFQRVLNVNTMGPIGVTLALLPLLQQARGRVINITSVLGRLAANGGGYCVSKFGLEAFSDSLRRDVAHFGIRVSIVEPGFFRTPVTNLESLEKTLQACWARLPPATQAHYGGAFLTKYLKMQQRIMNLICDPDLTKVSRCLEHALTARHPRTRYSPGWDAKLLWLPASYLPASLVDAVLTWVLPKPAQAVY

IC50 [µM]	SMILES
8.7	C[C@@H]1CC[C@H](C)N1C(=O)c1noc(-c2cc(F)c(F)c(O)c2F)n1 [Example 38, ((2R,5S)-2,5-Dimethylpyrrolidin-1-yl)(5-(2,4,5-trifluoro-3-hydroxyphenyl)-1,2,4-oxadiazol-3-yl)methanone]
> 50	C[C@@H]1CN(C(=O)c2noc(-c3cc(F)c(F)c(O)c3F)c2C#N)C[C@H](C)O1 [Example 22, 3-((2R,6S)-2,6-Dimethylmorpholine-4-carbonyl)-5-(2,4,5-trifluoro-3-hydroxyphenyl)isoxazole-4-carbonitrile]
24.9	O=C(c1noc(-c2cc(C(F)(F)F)[nH]c(=O)c2)n1)N1CCC(c2ccccc2)C1 (centres unmarked) [Example 9, 4-(3-(3-Phenylpyrrolidine-1-carbonyl)-1,2,4-oxadiazol-5-yl)-6-(trifluoromethyl)pyridin-2(1H)-one]
> 50	COc1cccc(N2CCN(C(=O)c3noc(-c4cc(F)c(F)c(O)c4F)c3C#N)CC2)c1 [Example 16, 3-(4-(3-Methoxyphenyl)piperazine-1-carbonyl)-5-(2,4,5-trifluoro-3-hydroxyphenyl)isoxazole-4-carbonitrile]
15.8	CC1(C)CN(C(=O)c2noc(-c3cc(F)c(F)c(O)c3F)n2)CC(C)(C)O1 [Example 32, (2,2,6,6-Tetramethylmorpholino)(5-(2,4,5-trifluoro-3-hydroxyphenyl)-1,2,4-oxadiazol-3-yl)methanone]
> 50	O=C(c1ccc(-c2cc(F)c(F)c(O)c2F)s1)N1CC[C@H](c2ccccc2)C1 [Example 33, (R)-(3-Phenylpyrrolidin-1-yl)(5-(2,4,5-trifluoro-3-hydroxyphenyl)thiophen-2-yl)methanone]
49.6	O=C(c1noc(-c2cc(F)c(F)c(O)c2F)n1)N1CCOC2CCCC21 (centres unmarked) [Example 41, (Hexahydrocyclopenta[b][1,4]oxazin-4(4aH)-yl)(5-(2,4,5-trifluoro-3-hydroxyphenyl)-1,2,4-oxadiazol-3-yl)methanone]
40.2	O=C(c1noc(-c2cc(F)c(F)c(O)c2F)n1)N1CC[C@@H](Oc2ccccc2)C1 [Example 98, (R)-(3-Phenoxypyrrolidin-1-yl)(5-(2,4,5-trifluoro-3-hydroxyphenyl)-1,2,4-oxadiazol-3-yl)methanone]
2.1	CC(C)CC1CN(C(=O)c2noc(-c3cc(F)c(F)c(O)c3F)n2)CCO1 (centres unmarked) [Example 47, (2-Isobutylmorpholino)(5-(2,4,5-trifluoro-3-hydroxyphenyl)-1,2,4-oxadiazol-3-yl)methanone]
40.3	O=C(c1noc(-c2cc(F)c(F)c(O)c2F)n1)N1CC[C@H](Oc2ccccc2)C1 [Example 93, (S)-(3-Phenoxypyrrolidin-1-yl)(5-(2,4,5-trifluoro-3-hydroxyphenyl)-1,2,4-oxadiazol-3-yl)methanone]
30	N#Cc1ccc2c(c1)CCN(C(=O)c1noc(-c3cc(F)c(F)c(O)c3F)n1)C2 [Example 31, 2-(5-(2,4,5-Trifluoro-3-hydroxyphenyl)-1,2,4-oxadiazole-3-carbonyl)-1,2,3,4-tetrahydroisoquinoline-6-carbonitrile]
> 50	C[C@@H]1CN(C(=O)c2noc(-c3c(F)c(O)c(F)c(F)c3I)n2)C[C@H](C)O1 [Example 108, ((2S,6R)-2,6-Dimethylmorpholino)(5-(2,4,5-trifluoro-3-hydroxy-6-iodophenyl)-1,2,4-oxadiazol-3-yl)methanone]
17	O=C(c1noc(-c2cc(F)c(F)c(O)c2F)n1)N1CC[C@H](c2ccc(Cl)cc2)C1 [Example 95, (R)-(3-(4-Chlorophenyl)pyrrolidin-1-yl)(5-(2,4,5-trifluoro-3-hydroxyphenyl)-1,2,4-oxadiazol-3-yl)methanone]
39.5	C[C@@H]1CN(C(=O)c2noc(-c3cc(F)c(F)c(O)c3F)n2)[C@H](C)CO1 [Example 50, ((2R,5R)-2,5-Dimethylmorpholino)(5-(2,4,5-trifluoro-3-hydroxyphenyl)-1,2,4-oxadiazol-3-yl)methanone]
18.4	O=C(c1noc(-c2cc(F)c(F)c(O)c2F)n1)N1CC2CCC(C1)C2(F)F [Example 43, (8,8-difluoro-3-azabicyclo[3.2.1]octan-3-yl)(5-(2,4,5-trifluoro-3-hydroxyphenyl)-1,2,4-oxadiazol-3-yl)methanone]
> 50	O=C(c1noc(-c2cc(F)c(F)c(O)c2F)n1)N1CCN(CCCOc2ccc(F)cc2)CC1 [Example 57, (4-(3-(4-Fluorophenoxy)propyl)piperazin-1-yl)(5-(2,4,5-trifluoro-3-hydroxyphenyl)-1,2,4-oxadiazol-3-yl)methanone]

IC50 [µM]	SMILES
> 50	O=C(c1noc(-c2cc(F)c(F)c(O)c2F)n1)N1CC(c2ccc(F)cc2)C1 [Example 74, (3-(4-Fluorophenyl)azetidin-1-yl)(5-(2,4,5-trifluoro-3-hydroxyphenyl)-1,2,4-oxadiazol-3-yl)methanone]
> 50	N#Cc1c(C(=O)N2CCN(CCCOc3ccc(F)cc3)CC2)noc1-c1cc(F)c(F)c(O)c1F [Example 14, 3-(4-(3-(4-Fluorophenoxy)propyl)piperazine-1-carbonyl)-5-(2,4,5-trifluoro-3-hydroxyphenyl)isoxazole-4-carbonitrile]
> 50	C[C@@H]1CN(C(=O)c2noc(-c3cc(F)c(F)c(O)c3F)n2)C[C@H](C)N1 [Example 119, ((3R,5S)-3,5-Dimethylpiperazin-1-yl)(5-(2,4,5-trifluoro-3-hydroxyphenyl)-1,2,4-oxadiazol-3-yl)methanone]
15.8	N#Cc1cccc2c1CCN(C(=O)c1noc(-c3c(F)c(O)c(F)c(F)c3Br)n1)C2 [Example 30, 2-(5-(2-Bromo-3,4,6-trifluoro-5-hydroxyphenyl)-1,2,4-oxadiazole-3-carbonyl)-1,2,3,4-tetrahydroisoquinoline-5-carbonitrile]
21.9	O=C(c1noc(-c2cc(F)c(F)c(O)c2F)n1)N1CCN(CCOc2ccc(Br)cn2)CC1 [Example 69, (4-(2-((5-Bromopyridin-2-yl)oxy)ethyl)piperazin-1-yl)(5-(2,4,5-trifluoro-3-hydroxyphenyl)-1,2,4-oxadiazol-3-yl)methanone]
32.4	O=C(c1noc(-c2cc(F)c(F)c(O)c2F)n1)N1CCO[C@H]2CCC[C@H]21 [Example 112, ((4aR,7aS)-Hexahydrocyclopenta[b][1,4]oxazin-4(4aH)-yl)(5-(2,4,5-trifluoro-3-hydroxyphenyl)-1,2,4-oxadiazol-3-yl)methanone]
16.3	N#Cc1ccc2c(c1)CN(C(=O)c1noc(-c3cc(F)c(F)c(O)c3F)c1C#N)CC2 [Example 29, 3-(7-Cyano-1,2,3,4-tetrahydroisoquinoline-2-carbonyl)-5-(2,4,5-trifluoro-3-hydroxyphenyl)isoxazole-4-carbonitrile]
> 50	Cn1nnc(-c2cnc(N3CCN(C(=O)c4noc(-c5cc(F)c(F)c(O)c5F)n4)CC3)c(Cl)c2)n1 [Example 67, (4-(3-Chloro-5-(2-methyl-2H-tetrazol-5-yl)pyridin-2-yl)piperazin-1-yl)(5-(2,4,5-trifluoro-3-hydroxyphenyl)-1,2,4-oxadiazol-3-yl)methanone]
38.9	O=C(Nc1ccnn1C1CCCCC1)c1cc(-c2ccc(F)c(O)c2)on1 [Example 99, N-(1-Cyclohexyl-1H-pyrazol-5-yl)-5-(4-fluoro-3-hydroxyphenyl)isoxazole-3-carboxamide]
41.7	C[C@@H]1CN(C(=O)c2noc(-c3cc(F)c(F)c(O)c3F)n2)C[C@@H](C)O1 [Example 88, ((2R,6R)-2,6-Dimethylmorpholino)(5-(2,4,5-trifluoro-3-hydroxyphenyl)-1,2,4-oxadiazol-3-yl)methanone]
> 50	N#Cc1cccc2c1CCN(C(=O)c1noc(-c3c(F)c(O)c(F)c(F)c3I)n1)C2 [Example 109, 2-(5-(2,4,5-Trifluoro-3-hydroxy-6-iodophenyl)-1,2,4-oxadiazole-3-carbonyl)-1,2,3,4-tetrahydroisoquinoline-5-carbonitrile]
6.2	N#Cc1c(C(=O)N2Cc3ccc(F)cc3C2)noc1-c1cc(F)c(F)c(O)c1F [Example 18, 3-(5-Fluoroisoindoline-2-carbonyl)-5-(2,4,5-trifluoro-3-hydroxyphenyl)isoxazole-4-carbonitrile]
19.6	CCCC1CCN(C(=O)c2noc(-c3cc(F)c(F)c(O)c3F)n2)C1 (centres unmarked) [Example 76, (3-Propylpyrrolidin-1-yl)(5-(2,4,5-trifluoro-3-hydroxyphenyl)-1,2,4-oxadiazol-3-yl)methanone]
> 50	O=C(c1noc(-c2cc(F)c(F)c(O)c2F)n1)N1CC(Oc2ccccc2)C1 [Example 2, (3-Phenoxyazetidin-1-yl)(5-(2,4,5-trifluoro-3-hydroxyphenyl)-1,2,4-oxadiazol-3-yl)methanone]
> 50	O=C(c1noc(-c2cc(F)c(F)c(O)c2F)n1)N1CCCC(OCc2ccccc2)C1 (centres unmarked) [Example 94, (3-(Benzyloxy)piperidin-1-yl)(5-(2,4,5-trifluoro-3-hydroxyphenyl)-1,2,4-oxadiazol-3-yl)methanone]

SMILES	IC50 [µM]
O=C(c1noc(-c2cc(F)c(F)c(O)c2F)n1)N1CCOC2(CC2)C1 [Example 118, (4-Oxa-7-azaspiro[2.5]octan-7-yl)(5-(2,4,5-trifluoro-3-hydroxyphenyl)-1,2,4-oxadiazol-3-yl)methanone]	> 50
